Test results reported in US5936065A, “CS-1 peptidomimetics, compositions and methods of using the same” (Cytel Corporation, priority 1995, dated 1999).
Square brackets hold non-standard residues; d marks the D form. Peptide text beside a SMILES is read from it. * marks the point of attachment. NMeD = CN[C@@H](CC(=O)O)C(=O)O; Morpholide = C1CN(*)CCO1; PhAc = O=C(Cc1ccccc1)*

Key:
VLA-4 receptor = biological target: T1, VLA-4 receptor (Homo sapiens, UniProt P05556+P13612); experiment: In vitro binding assay: inhibition of binding of 51Cr-labeled Jurkat cells to solid phase-bound CS-1 compound (SEQ ID NO:1); format: cell-based; details: for Relative Potency: binding inhibition potency (IC50) normalized to standard compound of SEQ ID NO:3 = 1, multiple assays averaged, about one-tenth or less assigned zero
T1 construct: inflammatory cells that contain the VLA-4 receptor [Jurkat cells; host or cells: Jurkat cells (human T lymphoblastic line)
Method: Binding inhibition is measured here as a concentration of compound that inhibits one-half the binding between a standard number of Jurkat cells and a standard amount of CS-1 compound bound to the surface of a microtiter plate well. Those concentrations are conveniently expressed as IC50 values, smaller numbers indicating a lower concentration required to inhibit 50 percent binding and therefore greater potency. Further specifics of this assay are provided hereinafter.
Jurkat cells (ATCC TIB 152), a human T lymphoblastic line, labeled with ^51 chromium were used to assay in vitro binding inhibition provided by various compounds discussed herein.
The plates were prepared as follows: The 25-mer CS-1 compound (SEQ ID NO:1) dissolved at 0.5-1 μg/ml in a buffer of 0.1M NaHCO3 at pH 9.5 that also contained 10 μg/ml of bovine serum albumin (BSA) or a conjugate of the CS-1 compound linked to ovalbumin (CS-1-OVA) dissolved at 1-2.5 μg/ml in the same buffer was used as the substrate. Each well of the microtiter plates was coated with 50 μl of substrate or buffer alone for controls. The wells were permitted to dry out completely and were then rinsed twice with PBS at pH 7.4. Non-specific binding sites of each well were then blocked using 200 μl per well of RPMI/1 percent BSA for two hours at room temperature.
Jurkat cells (3-5×10^6 cells) were placed into a 15 ml Falcon™ round-bottom tube with a cap. The tube was centrifuged, and the extra medium was then removed.
Two hundred microliters of a ^51 Cr labeling solution were added to the centrifuged cells and maintained in contact with the cells for 90-120 minutes in a warm room. […] Longer contact times provide a greater amount of labeling but lower cell viability.
The labeled cells are washed with (i) complete medium, (ii) 1 mM EDTA/PBS and then (iii) RPM1/1 percent BSA free of serum components. The cells are centrifuged after each washing. The cells are finally resuspended in serum-free RPMI/1 percent BSA at a concentration of 1×10^6 viable cells/ml, which provides a concentration that is diluted by one-half in the assay.
Inhibitor compounds are prepared as stock solutions at 20 mg/ml in DMSO in 1.5 ml cryogenic screwcap vials, and were stored at -70° C. Using Flow™ round-bottom or V-bottom microtiter plates, the inhibitor compounds were prepared at twice the assay concentration in RPMI/1 percent BSA at 60 μl/well.
Four initial dilutions were typically used.
The ^51 Cr-labeled cells ([…] at 60 μl/well) were then admixed with the diluted compound solutions. The admixtures were maintained at room temperature (about 22° C.) for 30 minutes.
One hundred microliters of each inhibitor compound/cell admixture were transferred to the substrate-coated wells. This was done in triplicate for each dilution. The resulting plates were incubated for 30 minutes at 37° C. and then washed gently three times with RPMI/1 percent BSA at 200 μl/well. Binding was observed microscopically, particularly after the second wash.
The bound cells were then lysed by the addition of a 0.5 percent solution of sodium dodecylsulfate in water at 100 μl/well. The resulting solutions were then processed for counting and calculation of IC50 values following usual procedures.
The data of Table 1 are normalized to the binding of SEQ ID NO:3. […] Multiple assays for the same compound were averaged.

[1] = system: New Zealand white rabbits; experiment: Treatment of asthmatic rabbits (house dust mite antigen challenge, crossover study); format: in vivo, rabbit; details: 100 mg/kg nebulizer
Method: Six New Zealand white rabbits were immunized with house dust mite antigen from birth through four months of age. Upon immunization, three rabbits received a single nebulizer administration of the inhibitor compound, Compound ID No. 1051.01, N-phenylacetyl-Leu-Asp-Phe-morpholinamide in aqueous 50 percent ethanol as diluent in an amount of 100 mg/kg, and the other three received diluent alone. All of the rabbits were challenged with house dust mite antigen about 15-30 minutes after administration of the compound, with those animals not receiving compound serving as controls.
Once immunized and challenged, the inflammatory state subsides to a basal level within about three weeks. The three animals used as controls were thereafter used as subjects for receipt of an inhibitor compound, and the three rabbits that initially received the compound can serve as controls.
Such a crossover study was done here. […]
Initial pulmonary function, measured by dynamic compliance (Cdyn) and lung resistance (RL) , and bronchoalveolar lavage (BAL) to obtain an effector cell count, here eosinophils, were conducted prior to administration of the compound or diluent for both portions of this crossover study. […]

BALB/c mice = experiment: Adoptive transfer delayed type hypersensitivity (oxazolone) in mice; format: in vivo, mouse; details: versus vehicle alone; implanted pump, 24 hours
Method: An adoptive transfer delayed-type hypersensitivity murine model has been developed using splenic T cells primed to oxazolone. This model is described in Elices et al., Clin. Exp. Rheum., 11(Suppl. 8):577-580 (1993), whose procedures were followed here.
Thus, BALB/c mice were shaved on the belly and painted (50 μl on the belly and 5 μl on each paw) with three percent oxazolone in acetone/olive oil (4:1) at days zero and 1. At day 5, the mice were sacrificed, their spleens removed, and splenic T cells were obtained via nylon wool columns.
Normal saline or saline containing 25×10^6 /animal of the oxazolone-immune T cells were separately injected into naive mice. The mice were then challenged by painting 10 μl of 2 percent oxazolone onto one ear each. All procedures were carried out under sterile conditions and in endotoxin-free buffers.
Prior to challenge or saline injection, the mice were implanted with pumps that subcutaneously administered normal saline, normal saline containing the compound, Compound ID No. 896.52, N-phenylacetyl-Leu-Asp-Phe-D-Pro-NH2, or normal saline containing a compound with a scrambled sequence continually at 6 mg/kg/day for a 24-hour time period. The swelling diameter at the site of challenge or saline injection was measured with a microcaliper 24 hours thereafter.
An expanded study was carried out as described above except that a scrambled compound control was not used as a control for further inhibitor compounds of Table 1 with larger groups of mice. Statistical analyses were carried out versus injection of vehicle alone.

Jurkat T cell line = experiment: Binding of Jurkat cells to frozen human RA synovial sections; format: cell-based; details: 10-mer at 500 μg/ml; 896.52 at its IC50 value
Method: Binding studies were carried out using the Jurkat T cell line and frozen RA synovial sections. […] Stimulated MOLT-4 cells behaved similarly.
The absolute value of that IC50 value is about 0.5 μmolar.

mouse = details: in vivo; cited from earlier work

T1 sequence (P13612 34-1032): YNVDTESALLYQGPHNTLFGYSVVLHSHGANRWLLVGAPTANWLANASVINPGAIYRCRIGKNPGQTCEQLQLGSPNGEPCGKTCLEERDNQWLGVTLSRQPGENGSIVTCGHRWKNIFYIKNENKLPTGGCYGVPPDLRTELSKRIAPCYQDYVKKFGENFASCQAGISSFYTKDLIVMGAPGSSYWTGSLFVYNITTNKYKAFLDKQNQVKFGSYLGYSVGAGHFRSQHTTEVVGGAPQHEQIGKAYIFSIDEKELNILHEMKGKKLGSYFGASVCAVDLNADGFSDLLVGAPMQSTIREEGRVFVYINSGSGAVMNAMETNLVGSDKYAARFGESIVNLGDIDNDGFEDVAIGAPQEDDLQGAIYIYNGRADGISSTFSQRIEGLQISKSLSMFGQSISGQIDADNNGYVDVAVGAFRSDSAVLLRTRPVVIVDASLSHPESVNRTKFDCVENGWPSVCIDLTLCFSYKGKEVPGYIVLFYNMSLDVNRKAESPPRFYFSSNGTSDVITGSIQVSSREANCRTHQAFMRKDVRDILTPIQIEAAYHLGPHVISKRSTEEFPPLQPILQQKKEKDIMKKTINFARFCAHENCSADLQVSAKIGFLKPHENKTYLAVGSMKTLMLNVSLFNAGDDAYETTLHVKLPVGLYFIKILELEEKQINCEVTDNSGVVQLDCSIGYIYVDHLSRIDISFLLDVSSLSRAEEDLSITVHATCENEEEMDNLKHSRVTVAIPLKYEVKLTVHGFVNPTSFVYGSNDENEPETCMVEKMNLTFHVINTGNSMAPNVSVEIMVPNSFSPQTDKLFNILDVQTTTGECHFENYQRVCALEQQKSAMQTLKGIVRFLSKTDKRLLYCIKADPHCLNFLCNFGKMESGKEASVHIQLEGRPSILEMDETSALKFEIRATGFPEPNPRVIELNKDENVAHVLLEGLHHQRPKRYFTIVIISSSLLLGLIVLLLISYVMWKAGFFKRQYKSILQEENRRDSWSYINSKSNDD
T1 sequence (P05556 21-798): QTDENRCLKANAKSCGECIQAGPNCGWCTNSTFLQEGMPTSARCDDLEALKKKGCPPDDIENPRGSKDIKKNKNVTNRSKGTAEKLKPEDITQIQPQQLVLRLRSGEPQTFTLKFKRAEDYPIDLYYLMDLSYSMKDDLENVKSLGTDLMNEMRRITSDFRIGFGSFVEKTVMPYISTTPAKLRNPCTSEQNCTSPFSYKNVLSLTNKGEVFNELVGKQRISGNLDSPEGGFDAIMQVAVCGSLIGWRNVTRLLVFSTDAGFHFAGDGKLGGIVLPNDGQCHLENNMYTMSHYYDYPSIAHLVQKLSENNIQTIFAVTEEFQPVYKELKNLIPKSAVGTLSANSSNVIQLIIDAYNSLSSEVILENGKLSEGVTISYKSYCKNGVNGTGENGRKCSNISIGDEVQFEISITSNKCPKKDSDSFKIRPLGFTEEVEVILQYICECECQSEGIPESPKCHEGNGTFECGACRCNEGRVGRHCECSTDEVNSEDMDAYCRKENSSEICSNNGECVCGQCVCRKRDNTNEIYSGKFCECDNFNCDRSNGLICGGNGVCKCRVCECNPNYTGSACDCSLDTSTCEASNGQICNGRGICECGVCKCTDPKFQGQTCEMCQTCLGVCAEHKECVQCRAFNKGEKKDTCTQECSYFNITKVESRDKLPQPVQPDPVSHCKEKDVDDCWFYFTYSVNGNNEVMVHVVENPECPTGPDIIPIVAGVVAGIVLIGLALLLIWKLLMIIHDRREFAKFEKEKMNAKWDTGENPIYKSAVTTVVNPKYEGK

In the case of CC(C)C[C@H](NC(=O)Cc1ccccc1)C(=O)N[C@@H](CC(=O)O)C(=O)N[C@@H](Cc1ccccc1)C(=O)N1CCOCC1 [1051.01, N-phenylacetyl-Leu-Asp-Phe-morpholinamide] (PhAc-Leu-Asp-Phe-Morpholide), the “binding inhibition, in words (compared with standard 10-mer of SEQ ID NO:3 or other compounds)” value (VLA-4 receptor) is reported as “greatest potency”, the “Cdyn value over six hours after challenge” value ([1]; FIG. 4A) is reported as “stayed at about the initial value” and the “RL values over six hours after challenge, percent of initial value” ([1]; FIG. 4B) is reported as ≤ 200%.
With CC(C)C[C@H](NC(=O)Cc1ccccc1)C(=O)N[C@@H](CC(=O)O)C(=O)N[C@@H](Cc1ccccc1)C(=O)N1CCC(O)CC1 [1070.02, .phi.Ac--Leu--Asp--Phe--4-hydroxpiperidinamide] the “Percent Inhibition of post-challenge swelling, expanded study” value (BALB/c mice) was 29%.
For CC(C)C[C@H](NC(=O)Cc1ccccc1)C(=O)N[C@@H](CC(=O)O)C(=O)N[C@@H](Cc1ccccc1)C(=O)N1CCN(CC(=O)O)CC1 [1111.06, .phi.Ac--Leu--Asp--Phe--4-N(carboxy-methyl)piperazinamide], the “Percent Inhibition of post-challenge swelling, expanded study” value (BALB/c mice) was 30% and the “Relative Potency” value (VLA-4 receptor) was 2600.
With CC(C)C[C@H](NC(=O)Cc1ccccc1)C(=O)N(C)[C@@H](CC(=O)O)C(=O)N[C@@H](Cc1ccccc1)C(=O)N1CCC[C@@H]1C(N)=O [1190.06] (PhAc-L[NMeD]F[dP]-NH2) the “Relative Potency” value (VLA-4 receptor) was 0.
For CC[C@H](C)[C@H](NC(=O)[C@H](CCC(=O)O)NC(=O)[C@@H]1CCCN1C(=O)CN)C(=O)N[C@@H](CC(C)C)C(=O)N[C@@H](CC(=O)O)C(=O)N[C@H](C(=O)N1CCC[C@H]1C(=O)N[C@@H](CO)C(=O)N[C@H](C(=O)O)[C@@H](C)O)C(C)C [SEQ ID NO:3, GPEILDVPST] (H-GPEILDVPST-OH), the “inhibition of Jurkat cell adhesion to RA synovial sections” value (Jurkat T cell line) was “could be inhibited”.
In the case of Arg-Gly-Asp [Arg-Gly-Asp peptide], the “inhibition of contact hypersensitivity / T lymphocyte recruitment to skin inflammatory sites” value (mouse) is listed as “also inhibitory”.
